# Test results from patent US20240409585A1, “MACROCYCLIC IMMUNOMODULATORS” (priority 2021, published 2024).
# Bridge positions count the residues as written; N and C are the ends. Square brackets hold non-standard residues; d marks the D form. Peptide text beside a SMILES is read from it. Phe(3-OCH2COOH) = N[C@@H](Cc1cccc(OCC(=O)O)c1)C(=O)O; Bip = N[C@@H](Cc1ccc(-c2ccccc2)cc1)C(=O)O; NMeW = CN[C@@H](Cc1c[nH]c2ccccc12)C(=O)O; Morpholine(3S-CO) = O=C(O)[C@@H]1COCCN1; NMeL = CN[C@@H](CC(C)C)C(=O)O; NMeNva = CCC[C@H](NC)C(=O)O; NMeS = CN[C@@H](CO)C(=O)O; NMeA = CN[C@@H](C)C(=O)O; Dab = NCC[C@H](N)C(=O)O
# Target: T1, PE-labeled human PD-L1-Ig binding to Jurkat cell line over-expressing human PD-1 (Jurkat-PD-1) (Homo sapiens, UniProt Q15116)
# T1 construct: expressed in transfected cells; host or cells: Jurkat
# T1 sequence (Q15116 25-288): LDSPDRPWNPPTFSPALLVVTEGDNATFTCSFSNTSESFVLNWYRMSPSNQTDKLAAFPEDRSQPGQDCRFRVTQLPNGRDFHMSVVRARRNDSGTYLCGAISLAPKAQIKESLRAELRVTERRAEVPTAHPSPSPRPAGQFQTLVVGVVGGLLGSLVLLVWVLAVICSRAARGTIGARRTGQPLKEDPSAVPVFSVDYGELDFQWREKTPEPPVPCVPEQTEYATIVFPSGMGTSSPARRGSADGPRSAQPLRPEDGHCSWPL
# Experiment: Jurkat-PD-1 Cell Binding High-Content Screening Assay (CBA): Method 1
# Settings: Jurkat-hPD-1 cells, PE-labeled PD-L1-Ig 20 nM final; read-out: Jurkat HPDL1 PD1 IC50 (uM) (Method 1)
row,IC50 [µM],SMILES
1,0.39,CC(C)C[C@@H]1NC(=O)[C@H](CCN)NC(=O)[C@@H](CC(C)C)NC(=O)[C@@H]2COCCN2C(=O)[C@H](C(C)C)NC(=O)[C@H](Cc2ccc(-c3ccccc3)cc2)NC(=O)[C@H](C(C)C)NC(=O)[C@H](Cc2c[nH]c3ccccc23)NC(=O)[C@H](CC(=O)O)NC(=O)[C@H](Cc2ccc(O)cc2)NC(=O)[C@H](CC(N)=O)NC(=O)CSC[C@@H](C(=O)N[C@@H](C)C(N)=O)NC(=O)[C@H]([C@@H](C)O)NC(=O)[C@H](C(C)C)NC1=O [Compound 1367] ({CH2CO}-NYDWV[Bip]V[Morpholine(3S-CO)][dL][Dab]LVTCA-NH2; thioether N-14)
2,0.13,CC(C)C[C@@H]1NC(=O)[C@H](CCN)NC(=O)[C@@H](CC(C)C)NC(=O)[C@H](Cc2c[nH]c3ccccc23)N(C)C(=O)[C@H](C(C)C)NC(=O)[C@H](Cc2ccc(-c3ccccc3)cc2)NC(=O)[C@H](C(C)C)NC(=O)[C@H](Cc2c[nH]c3ccccc23)NC(=O)[C@H](CC(=O)O)NC(=O)[C@H](Cc2ccc(O)cc2)NC(=O)[C@H](CC(N)=O)NC(=O)CSC[C@@H](C(=O)N[C@@H](C)C(N)=O)NC(=O)[C@H]([C@@H](C)O)NC(=O)[C@H](C(C)C)NC1=O [Compound 1368] ({CH2CO}-NYDWV[Bip]V[NMeW][dL][Dab]LVTCA-NH2; thioether N-14)
3,0.03,CCC[C@H]1C(=O)N[C@H](CC(C)C)C(=O)N[C@@H](CCN)C(=O)N[C@@H](CC(C)C)C(=O)N[C@@H](C(C)C)C(=O)N[C@@H]([C@@H](C)O)C(=O)N[C@H](C(=O)N[C@@H](C)C(N)=O)CSCC(=O)N[C@@H](CC(N)=O)C(=O)N[C@@H](Cc2ccc(O)cc2)C(=O)N[C@@H](CC(=O)O)C(=O)N[C@@H](Cc2c[nH]c3ccccc23)C(=O)N[C@@H](C(C)C)C(=O)N[C@@H](Cc2ccc(-c3ccccc3)cc2)C(=O)N[C@@H](C(C)C)C(=O)N1C [Compound 1369] ({CH2CO}-NYDWV[Bip]V[NMeNva][dL][Dab]LVTCA-NH2; thioether N-14)
4,0.01,CC(C)C[C@@H]1NC(=O)[C@H](CCN)NC(=O)[C@@H](CC(C)C)NC(=O)[C@H](CO)N(C)C(=O)[C@H](C(C)C)NC(=O)[C@H](Cc2ccc(-c3ccccc3)cc2)NC(=O)[C@H](C(C)C)NC(=O)[C@H](Cc2c[nH]c3ccccc23)NC(=O)[C@H](CC(=O)O)NC(=O)[C@H](Cc2ccc(O)cc2)NC(=O)[C@H](CC(N)=O)NC(=O)CSC[C@@H](C(=O)N[C@@H](C)C(N)=O)NC(=O)[C@H]([C@@H](C)O)NC(=O)[C@H](C(C)C)NC1=O [Compound 1370] ({CH2CO}-NYDWV[Bip]V[NMeS][dL][Dab]LVTCA-NH2; thioether N-14)
5,0.03,CC(C)C[C@@H]1NC(=O)[C@H](CCN)NC(=O)[C@@H](CC(C)C)NC(=O)[C@H](CC(C)C)N(C)C(=O)[C@H](C(C)C)NC(=O)[C@H](Cc2ccc(-c3ccccc3)cc2)NC(=O)[C@H](C(C)C)NC(=O)[C@H](Cc2c[nH]c3ccccc23)NC(=O)[C@H](CC(=O)O)NC(=O)[C@H](Cc2ccc(O)cc2)NC(=O)[C@H](CC(N)=O)NC(=O)CSC[C@@H](C(=O)N[C@@H](C)C(N)=O)NC(=O)[C@H]([C@@H](C)O)NC(=O)[C@H](C(C)C)NC1=O [Compound 1371] ({CH2CO}-NYDWV[Bip]V[NMeL][dL][Dab]LVTCA-NH2; thioether N-14)
6,0.14,CC(C)C[C@@H]1NC(=O)[C@H](CCN)NC(=O)[C@@H](CC(C)C)NC(=O)[C@H](C)N(C)C(=O)[C@H](CCCNC(=N)N)NC(=O)[C@H](Cc2ccc(-c3ccccc3)cc2)NC(=O)[C@H](C(C)C)NC(=O)[C@H](Cc2c[nH]c3ccccc23)NC(=O)[C@H](CC(=O)O)NC(=O)[C@H](Cc2cccc(OCC(=O)O)c2)NC(=O)[C@H](CC(N)=O)NC(=O)CSC[C@@H](C(=O)N[C@@H](C)C(N)=O)NC(=O)[C@H]([C@@H](C)O)NC(=O)[C@H](C(C)C)NC1=O [Compound 1372] ({CH2CO}-N[Phe(3-OCH2COOH)]DWV[Bip]R[NMeA][dL][Dab]LVTCA-NH2; thioether N-14)
